Results reported in patent publication US20080175872A1, “Controlled Release Dosage Form Containing Lercanidipine and a Performance-enhancing Acid” (OSMOTICA CORP., priority 2006, published 2008).
“And” between values parts separate entries of the source, which are not always exact repeats. Equal values may be shown once.

Assays:
[1] = Stability of lercanidipine HCl polymorph II alone or 1/1 with organic acid, impurities by HPLC; assay type: physicochemical
Experimental: Analytical testing of the different samples was done by HPLC, column RP18, 300×3.9 mm ID, particle size 4 μm, in acetonitrile-0.15 M sodium perchlorate buffer, pH 3.0, at a flow rate of 1.3 ml/min, at 30° C., detector UV 240 nm. In all cases impurities were reported as % of the area of the impurity peak referred to the area of the main peak (a/a). The lercanidipine is the lercanidipine HCl polymorph II. […] The lercanidipine is the lercanidipine HCl polymorph II.

[2] = cited from earlier work
[3] = oral administration of an immediate release form; cited from earlier work
[4] = 50° C., 1.5 month, closed vials

## COC(=O)C1=C(C)NC(C)=C(C(=O)OC(C)(C)CN(C)CCC(c2ccccc2)c2ccccc2)C1c1cccc([N+](=O)[O-])c1 (centres unmarked) [Lercanidipine, methyl 1,1,N-trimethyl-N-(3,3-diphenylpropyl)-2-aminoethyl 1,4-dihydro-2,6-dimethyl-4-(3-nitrophenyl)pyridine-3,5-dicarboxylate]
[1]; 5° C. (reference condition)
  Impurity 3: 0.18 % a/a and 0.27 % a/a
  Impurity B: 0.02 % a/a and 0.01 % a/a
  Maximum unknown impurities: 0.04 % a/a
[1]; 50° C. + 75% RH
  Impurity 3: 0.28 % a/a and 0.16 % a/a
  Impurity B: 0.01 % a/a
  Maximum unknown impurities: 0.05 % a/a and 0.04 % a/a
  Total impurities: 0.43 % a/a and 0.34 % a/a
[1]; [4]
  Impurity 3: 0.22 % a/a and 0.30 % a/a
  Impurity B: 0.01 % a/a
  Maximum unknown impurities: 0.03 % a/a and 0.04 % a/a
  Total impurities: 0.31 % a/a and 0.47 % a/a
[2]
  permeability classification as defined by the FDA: low permeable drug
[2]; pH range of 1 to 8
  solubility in gastrointestinal pH range: essentially insoluble
[3]
  peak plasma level (Tmax): 1 to 3 h
